Among the data in US9834541B2, “2-aminopyridine compounds” (Merck Patent GmbH, priority 2012, dated 2017) are IC50 and microsomal CLint values, retold here.

One data set concerns Wnt pathway. Put plainly: Cellular assay for Wnt pathway activity, LS174T-shl-fLuc clone 5 (LS174T-L5) luciferase reporter assay. It counts as cell-based. Conditions: Homo sapiens; LS174T TCF luciferase reporter cells, 24 hours incubation. From the text: 1. Cellular Assay for Wnt Pathway Activity LS174T-shl-fLuc Clone 5 (LS174T-L5) Reporter Assay Principle:
This assay is based on an in-vitro luciferase activity readout. The human colon cancer cell line, LS174T was transduced with a lentivirus encoding a short half-life luciferase (with a destabilised PEST sequence construct; construct F1756): 16×TCF/LEF transcription sites—short half life firefly luciferase on a basal pTA promoter—puromycin resistance gene on an EF-1-α promoter). This construct was made using the lentiviral base vector: pCDF1-MCS2-EF1-Puro from System Biosciences (cat. # CD110B-1). The luciferase has a T1/2 of about 60 minutes.
Stable luciferase-expressing clones were selected, using 1 μg/mL puromycin selection and the clones were bulked up.
Compounds that inhibit the Wnt pathway are predicted to inhibit the induction of luciferase transcription by TCF; this will result in reduced luciferase protein production and luciferase signal readout.
Compounds were tested for their Wnt pathway inhibitory activities using the described firefly luciferase reporter cell based assay. An LS174T luciferase reporter cell line was used which contained a T-Cell Factor (TCF) dependent gene promoter firefly luciferase construct.
Compounds, in concentrations from 30 μM to 1 nM, were incubated for 24 hours on the cells. Luciferase activities were determined using the Steady Glo Luciferase Assay System (Promega) and the TOPCOUNT microplate reader (Perkin Elmer). For analysis, the obtained data were normalized against the untreated vehicle control and fitted for determination of the IC50 values using the Excel Fit application of the Excel Software (Microsoft).

Data set [1] in a line: CLint (intrinsic clearance) assay, liver microsomal incubation. It counts as in vitro ADME, human. Conditions: liver microsomes, pH 7.4; human hepatic microsomes, 0.5 mg/mL protein, class symbols. The procedure: Also shown is the human hepatic microsomal intrinsic clearance (CLint), whereby the following classification is used:
2. CLint (Intrinsic Clearance) Assay
A Tecan Genesis workstation (RWS ASY 150/8) was used to perform the microsomal incubations. Analysis was carried out using a Waters ACQUITY UPLC system coupled to an ABSciex API3000 mass spectrometer. Data analysis was performed using Assay Explorer (Symyx).
Column: Acquity UPLC BEH C18, 2.1×50 mm, 1.7 um (Waters)
Mobile phases: • A=0.1% formic acid in water • B=acetonitrile
Column temperature: 50° C.
0.1 M potassium phosphate buffer pH 7.4 containing 1 mM MgCl2
15 mM NADPH in phosphate buffer
5.0 mg protein/mL liver microsomes in phosphate buffer
Each experiment consists of 12 test and 2 reference compounds. The reference compounds are incubated as a cocktail.
Dilution of test compounds was done in 2 steps from a 10 mM DMSO stock solution. First 4 μL stock solution was added to 196 μL of 20% DMSO in potassium phosphate buffer pH 7.4. In a second step 10 μL of the first dilution were added to 1890 μL potassium phosphate buffer and 100 μL internal standard solution to a final concentration of […].
100 μL of the final compound dilution were aliquoted into a 96 deep well plate. 12.5 μL liver microsomes were added to each well (0.5 mg/mL final protein concentration) and the samples preincubated for 5 min at 37° C. and 800 rpm agitation.
After the preincubation, 250 μL cold acetonitrile were added to the 0 min samples to prevent a reaction. Following this, 12.5 μL NADPH solution were added to all wells to start the incubation, with the exception of the 0 min and 30 min controls without cofactor, where the NADPH was substituted for phosphate buffer.
The incubations were stopped after 5, 10, 20 and 30 min by adding 250 μL cold acetonitrile to the individual wells.
The quenched samples were then centrifuged at 4000 g for 1 h at 4° C. 100 μL of the supernatant were transferred into 96 well plates for analysis.
The metabolic stability of each compound was determined by measurement of the change in LC-MS/MS peak area over time. Assay Explorer software was used to automatically calculate the slope k of the decline. The intrinsic clearance (CLint) of each compound was then calculated according to the formula: CLint(μL/min/mg protein)=k1000/protein concentration.

In the case of `CN1C(=O)CCc2cc(-c3cnc(N)c(Cl)c3N3CCC4(CCNC4=O)CC3)ccc21` [Compound 14, 6-[6-Amino-5-chloro-4-(1-oxo-2,8-diaza-spiro[4.5]dec-8-yl)-pyridin-3-yl]-1-methyl-3,4-dihydro-1H-quinolin-2-one], the IC50 in the data set with Wnt pathway turned out to be 40 nM. Also, the intrinsic metabolic clearance (microsomal CLint) at 0.8 μM in data set [1] was 10 to 50 µL/min/mg.
Consider `CN1C(=O)Cc2cc(-c3cnc(N)c(Cl)c3N3CCC4(CCNC4=O)CC3)ccc21` [Compound 15, 8-[2-Amino-3-chloro-5-(1-methyl-2-oxo-2,3-dihydro-1H-indol-5-yl)-pyridin-4-yl]-2,8-diaza-spiro[4.5] decan-1-one], for which, in the data set with Wnt pathway, the 50% inhibitory concentration (IC50) came out at 54 nM. Also, the microsomal CLint at 0.8 μM in data set [1] lay within 10 to 50 µL/min/mg.
The matching figures for `Cn1cc(-c2ccc(-c3cnc(N)c(Cl)c3N3CCC4(CCNC4=O)CC3)cc2)cn1` [Compound 16, 8-(2-Amino-3-chloro-5-(4-(1-methyl-1H-pyrazol-4-yl)phenyl)pyridin-4-yl)-2,8-diazaspiro[4.5]decan-1-one]: 25 nM and 100 to 150 µL/min/mg.
On to `Cn1ncc2cc(-c3cnc(N)c(Cl)c3N3CCC4(CC3)CC(=O)NC4=O)ccc21` [Compound 17, 8-[2-Amino-3-chloro-5-(1-methyl-1H-indazol-5-yl)-pyridin-4-yl]-2,8-diaza-spiro[4.5] decane-1,3-dione], for which, in the data set on Wnt pathway, half-maximal inhibition (IC50) required 2 nM. In addition, in data set [1], the microsomal CLint at 0.8 μM was 10 to 50 µL/min/mg.
In turn, `Nc1ncc(-c2ccc(N3CCOCC3)cc2)c(N2CCC3(CCNC3=O)CC2)c1Cl` [Compound 18, 8-[2-Amino-3-chloro-5-(4-morpholin-4-yl-phenyl)-pyridin-4-yl]-2,8-diaza-spiro[4.5] decan-1-one] had an IC50 in the data set with Wnt pathway of 120 nM. For the same molecule, in data set [1], the intrinsic clearance (microsomal CLint) at 0.8 μM was in the range of 50 to 100 µL/min/mg.
In the case of `Nc1ncc(-c2ccc3c(c2)CCC(=O)N3)c(N2CCC3(CCNC3=O)CC2)c1Cl` [Compound 19, 6-[6-Amino-5-chloro-4-(1-oxo-2,8-diaza-spiro[4.5]dec-8-yl)-pyridin-3-yl]-3,4-dihydro-1H-quinolin-2-one], the IC50 with Wnt pathway was found to be 75 nM. Moreover, the microsomal CLint at 0.8 μM in data set [1] was in the range of 10 to 50 µL/min/mg.
`Cn1ncc2ccc(-c3cnc(N)c(Cl)c3N3CCC4(CC3)CNC(=O)O4)cc21` [Compound 20, 8-[2-Amino-3-chloro-5-(1-methyl-1H-indazol-6-yl)-pyridin-4-yl]-1-oxa-3,8-diaza-spiro[4.5] decan-2-one] came in with an IC50 in the data set on Wnt pathway of 54 nM. Moreover, the microsomal CLint at 0.8 μM in data set [1] was 10 to 50 µL/min/mg.
For `Cn1ncc2cc(-c3cnc(N)c(Cl)c3N3CCC4(CC3)CNC(=O)O4)ccc21` [Compound 21, 8-[2-Amino-3-chloro-5-(1-methyl-1H-indazol-5-yl)-pyridin-4-yl]-1-oxa-3,8-diaza-spiro[4.5] decan-2-one] the same measures were 110 nM and 10 to 50 µL/min/mg.
For `Cn1ccc(-c2ccc(-c3cnc(N)c(Cl)c3N3CCC4(CCNC4=O)CC3)cc2)n1` [Compound 22, 8-(2-Amino-3-chloro-5-(4-(1-methyl-1H-pyrazol-3-yl)phenyl)pyridin-4-yl)-2,8-diazaspiro[4.5]decan-1-one] the same measures were 38 nM and 10 to 50 µL/min/mg.
As for `Cn1ncc2ccc(-c3cnc(N)c(Cl)c3N3CCC4(CCNC4=O)CC3)cc21` [Compound 23, 8-[2-Amino-3-chloro-5-(1-methyl-1H-indazol-6-yl)-pyridin-4-yl]-2,8-diaza-spiro[4.5] decan-1-one], the midpoint of inhibition in the data set with Wnt pathway, the IC50, lay at 21 nM. The microsomal CLint at 0.8 μM in data set [1] is 10 to 50 µL/min/mg.
Regarding `Nc1ncc(-c2ccc3cc[nH]c3c2)c(N2CCC3(CCNC3=O)CC2)c1Cl` [Compound 24, 8-[2-Amino-3-chloro-5-(1H-indol-6-yl)-pyridin-4-yl]-2,8-diaza-spiro[4.5] decan-1-one], in the data set with Wnt pathway, inhibition was half-maximal at 18 nM (IC50). Further, in data set [1], the microsomal CLint at 0.8 μM lay within 100 to 150 µL/min/mg.
For `Cn1ncc2cc(-c3cnc(N)c(Cl)c3N3CCC4(CCNC4=O)CC3)ccc21` [Compound 25, 8-(2-Amino-3-chloro-5-(1-methyl-1H-indazol-5-yl)pyridin-4-yl)-2,8-diazaspiro[4.5]decan-1-one], in the data set with Wnt pathway, the concentration for half-maximal inhibition (IC50) was 34 nM. Also, the microsomal CLint at 0.8 μM in data set [1] is 50 to 100 µL/min/mg.
For the molecule `CN1c2ccc(-c3cnc(N)c(Cl)c3N3CCC4(CCNC4=O)CC3)cc2CS1(=O)=O` [Compound 26, 8-(2-Amino-3-chloro-5-(1-methyl-2,2-dioxido-1,3-dihydrobenzo[c]isothiazol-5-yl)pyridin-4-yl)-2,8-diazaspiro[4.5]decan-1-one], in the data set with Wnt pathway, the half-maximal inhibitory concentration (IC50) turned out to be 6 nM. Moreover, the microsomal CLint at 0.8 μM in data set [1] fell in the range of 100 to 150 µL/min/mg.
For `N#CC1CCN(c2c(-c3ccc(N4CCOCC4)cc3)cnc(N)c2Cl)CC1` [Compound 27, 1-(2-Amino-3-chloro-5-(4-morpholinophenyl)pyridin-4-yl)piperidine-4-carbonitrile], in the data set with Wnt pathway, the IC50 was 34 nM. Besides, the microsomal CLint at 0.8 μM in data set [1] lay within 100 to 150 µL/min/mg.
As to `Nc1ccc(-c2ccc(-c3cnc(N)c(Cl)c3N3CCC4(CCNC4=O)CC3)cc2)cn1` [Compound 28, 8-{2-Amino-5-[4-(6-amino-pyridin-3-yl)-phenyl]-3-chloro-pyridin-4-yl}-2,8-diaza-spiro[4.5] decan-1-one], the IC50 in the data set on Wnt pathway was 12 nM. Also, the microsomal CLint at 0.8 μM in data set [1] was not below 150 µL/min/mg.
For `Nc1ncc(-c2ccc3cc[nH]c3c2)c(N2CCC3(CC2)CNC(=O)O3)c1Cl` [Compound 29, 8-[2-Amino-3-chloro-5-(1H-indol-6-yl)-pyridin-4-yl]-1-oxa-3,8-diaza-spiro[4.5] decan-2-one], in the data set with Wnt pathway, the IC50 turned out to be 30 nM. Also, the intrinsic clearance (microsomal CLint) at 0.8 μM in data set [1] lay in the range of 100 to 150 µL/min/mg.
`CN1CCN(c2ccc(-c3cnc(N)c(Cl)c3N3CCC(C#N)CC3)cc2)CC1` [Compound 30, 1-(2-Amino-3-chloro-5-(4-(4-methylpiperazin-1-yl)phenyl)pyridin-4-yl)piperidine-4-carbonitrile]: in the data set with Wnt pathway, the half-inhibitory concentration (IC50) was found to be 12 nM. Also, the microsomal CLint at 0.8 μM in data set [1] is 10 to 50 µL/min/mg.
For `Cn1ncc2cc(-c3cnc(N)c(Cl)c3N3CCC4(CC3)C(=O)Nc3ccccc34)ccc21` [Compound 31, 1′-(2-Amino-3-chloro-5-(1-methyl-1H-indazol-5-yl)pyridin-4-yl)spiro[indoline-3,4′-piperidin]-2-one] the same measures were 4 nM and 50 to 100 µL/min/mg.
The matching figures for `Nc1ncc(-c2ccc3oc(=O)[nH]c3c2)c(N2CCC3(CCNC3=O)CC2)c1Cl` [Compound 32, 5-[6-Amino-5-chloro-4-(1-oxo-2,8-diaza-spiro[4.5]dec-8-yl)-pyridin-3-yl]-3H-benzooxazol-2-one]: 17 nM and 10 to 50 µL/min/mg.
For `Nc1ncc(-c2ccc3c(c2)CC(=O)N3)c(N2CCC3(CCNC3=O)CC2)c1Cl` [Compound 33, 8-[2-Amino-3-chloro-5-(2-oxo-2,3-dihydro-1H-indol-5-yl)-pyridin-4-yl]-2,8-diaza-spiro[4.5] decan-1-one], the IC50 with Wnt pathway is 154 nM. The intrinsic metabolic clearance (microsomal CLint) at 0.8 μM in data set [1] fell in the range of 10 to 50 µL/min/mg.
Consider `Nc1ncc(-c2ccc(-c3cnn(CCO)c3)cc2)c(N2CCC3(CC2)CNC(=O)O3)c1Cl` [Compound 34, 8-(2-Amino-3-chloro-5-{4-[1-(2-hydroxy-ethyl)-1H-pyrazol-4-yl]-phenyl}-pyridin-4-yl)-1-oxa-3,8-diaza-spiro[4.5] decan-2-one], for which, in the data set with Wnt pathway, the IC50 was 370 nM. Moreover, the intrinsic clearance (microsomal CLint) at 0.8 μM in data set [1] lay in the range of 10 to 50 µL/min/mg.
